# Source: US20210100869A1, “COMPOSITIONS AND METHODS OF USING SAME FOR TREATING AMYOTROPHIC LATERAL SCLEROSIS (ALS)” (Immunity Pharma Ltd., priority 2018, published 2021)
# Residues, ends and D or L forms follow the SMILES beside them.
# How the values were obtained:
# [1] = tested on: ALS patients; assay: Open-label Phase 1/2a clinical trial, safety and tolerability (adverse events); format: in vivo, human; settings: eight patients, IV daily, 1.7 mg/kg escalated to 3.2 mg/kg
# Method: Dose-limiting Toxicity (DLT): DLT is defined as a ≥Grade 3 per subject which is IPL344 drug-related adverse event (using CTCAE Version v.4.03) occurring at any dosing, excluding: • Grade 3 adverse event of hypersensitivity (defined as sinus tachycardia, heavy breathing or rash along the veins or elsewhere) • A transient (resolving within 6 hours of onset) Grade 3 study drug-related adverse event.
# Adverse events (AE)—The FDA defines an AE as “any untoward medical occurrence associated with the use of a drug in humans, whether or not considered drug related” (US Department of Health and Human Services, December 2012). Medical conditions present before first administration of IPL344 are considered pre-existing conditions and are documented as medical history. A new condition, event or the worsening of a pre-existing condition is considered an AE from the first dose of administration.
# AEs are coded by CTCAE Version v4.03.
# Safety Analysis: The Safety population is based on participants having received at least one dose of IPL-344 (exposed population), including participants prematurely withdrawn. AEs are classified by system-organ class and preferred term and then summarized by number and percentage of participants experiencing AEs. […] The IPL344 DLT and maximal tolerated dose (MTD) are assessed and presented. […]
# [2] = tested on: ALS patients; settings: estimated moderate effect; cited from earlier work
Structure (SMILES),Safety and tolerability profile ([1]; 28 days safety study),Drug-related adverse events [1],Extension in patient survival [2]
"CC(C)C[C@H](NC(=O)[C@@H]1CCCN1C(=O)[C@@H]1CCCN1C(=O)[C@@H](N)CC(C)C)C(=O)N1CCC[C@H]1C(=O)N[C@@H](Cc1ccc(O)cc1)C(=O)N1CCC[C@H]1C(=O)O [IPL344, LPPLPYP] (H-LPPLPYP-OH)",favorable safety and tolerability profile,No drug-related adverse events,–
CC1=NN(c2ccccc2)C(=O)C1 [edaravone],–,–,three months extension in patient survival
